Test results taken from patent EP2062885A1, “Acid addition salts of imatinib and formulations comprising the same” (priority 2007, dated 2009).
Counter-ions that a name gives are not always drawn. Like-named read-outs stand apart in the source and are kept apart here.

Columns and labels:
[1] = tested on: Rabbit; conditions: cited from earlier work
[2] = tested on: Rat; conditions: cited from earlier work
[3] = tested on: Mouse; conditions: cited from earlier work
[4] = Non-hygroscopicity test (stability chambers, water content by Karl Fischer method); format: physicochemical; conditions: for Final Moisture Content After 24hrs / Initial Moisture Content: Karl Fischer; for hygroscopic properties: assessment in words, comparable to α and β forms of imatinib mesylate; for Initial Moisture Content: before storage in stability chamber
Experimental: The water contents were measured by a well known method, namely Karl Fischer method for determining water quantities.

[5] = tested on: Quail; conditions: Oral; cited from earlier work

N[C@@H](CC(=O)O)C(=O)O [Aspartic acid]
LD50 ([1]; Skin): 5000 mg/kg
LD50 ([2]; Oral, Rat): 5000 mg/kg

CC1(C)C2CCC1(CS(=O)(=O)O)C(=O)C2 (stereo not drawn) [Camphor sulfonic acid]
LD50 ([3]; Subcutaneous, Mouse): 2502 mg/kg

CCCCCCCCCC(=O)O [Capric acid]
LD50 ([1]; Oral): 1770 mg/kg
LD50 ([2]; Oral, Rat): 3730 mg/kg

Cc1ccc(NC(=O)c2ccc(CN3CCN(C)CC3)cc2)cc1Nc1nccc(-c2cccnc2)n1.O=C(O)c1cc(=O)[nH]c(=O)[nH]1 [Imatinib Orotate, 4-[(4-Methyl-1-piperazinyl)methyl]-N-[4-methyl-3-[[4-(3-pyridinyl)-2-pyrimidinyl]amino]phenyl]-benzamide, orotate]
Final Moisture Content After 24hrs ([4]; 25°C at humidity of 60%): 0.7%
Final Moisture Content After 24hrs ([4]; 40 °C at humidity of 75%): 0.7%
hygroscopic properties [4]: considerably low hygroscopic
Initial Moisture Content [4]: 0.4%

Cc1ccc(NC(=O)c2ccc(CN3CCN(C)CC3)cc2)cc1Nc1nccc(-c2cccnc2)n1 [Imatinib Oxalate, 4-[(4-Methyl-1-piperazinyl)methyl]-N-[4-methyl-3-[[4-(3-pyridinyl) -2-pyrimidinyl]amino]phenyl]-benzamide, oxalate]
Final Moisture Content After 24hrs ([4]; 25°C at humidity of 60%): 3.4%
Final Moisture Content After 24hrs ([4]; 40 °C at humidity of 75%): 3.6%
hygroscopic properties [4]: considerably low hygroscopic
Initial Moisture Content [4]: 1.6%

CCCCCCCCCCCC(=O)O [Lauric acid]
LD50 ([2]; Oral, Rat): 12000 mg/kg
LD50 ([3]; mouse, in vivo, iv): 131 mg/kg

CS(=O)(=O)O [Methanesulfonic acid, reference compound]
LD50 ([2]; rat, in vivo, po): 200 mg/kg
LD50 [5]: 1000 mg/kg

CCCCCCCC/C=C\CCCCCCCC(=O)O [Oleic acid]
LD50 ([2]; Oral, Rat): 74000 mg/kg
LD50 ([3]; Intraperitoneal, Mouse): 282 mg/kg
LD50 ([3]; Intravenous, Mouse): 230 mg/kg

O=C(O)c1cc(=O)[nH]c(=O)[nH]1 [Orotic acid]
LD50 ([3]; mouse, in vivo, ip): 841 mg/kg
LD50 ([3]; mouse, in vivo, iv): 770 mg/kg
LD50 ([3]; mouse, in vivo, po): 2000 mg/kg

O=C(O)Cc1ccccc1 [Phenyl acetic acid]
LD50 ([2]; Intraperitoneal, Rat): 1600 mg/kg
LD50 ([2]; Oral, Rat): 2250 mg/kg

Cc1ccc(S(=O)(=O)O)cc1 [p-Toluene sulfonic acid]
LD50 ([2]; Oral, Rat): 2480 mg/kg
LD50 ([3]; Oral, Mouse): 400 mg/kg
